The values below come from ChEMBL document CHEMBL1201862, “PubChem BioAssay data set” (2004).

The target in experiment [1] is Benomyl/methotrexate resistance protein (Candida albicans, UniProt P28873). Description: CaMdr1 efflux pump inhibitor potency, dose response, singleplex, Cherry Pick1 hits (AID 588608). It counts as functional.
The target in experiment [2] is DNA dC->dU-editing enzyme APOBEC-3G (Homo sapiens, UniProt Q9HC16). Format: functional.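 Note: Dose-response counterscreen measuring inhibition of APOBEC3G DNA deaminase activity, run while confirming APOBEC3A inhibitors.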
DNA dC->dU-editing enzyme APOBEC-3G, sequence (Q9HC16 whole entry): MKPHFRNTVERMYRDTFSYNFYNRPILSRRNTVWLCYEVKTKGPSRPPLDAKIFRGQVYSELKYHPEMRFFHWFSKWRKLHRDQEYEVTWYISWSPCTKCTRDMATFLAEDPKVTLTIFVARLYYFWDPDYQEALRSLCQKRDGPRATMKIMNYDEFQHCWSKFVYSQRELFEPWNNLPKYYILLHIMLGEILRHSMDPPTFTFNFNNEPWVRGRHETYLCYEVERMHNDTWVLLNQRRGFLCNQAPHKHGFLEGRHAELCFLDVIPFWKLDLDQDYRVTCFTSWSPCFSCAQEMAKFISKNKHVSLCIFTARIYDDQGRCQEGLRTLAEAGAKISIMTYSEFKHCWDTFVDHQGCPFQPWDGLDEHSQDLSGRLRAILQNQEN
The target of experiment [3] is T1, High affinity choline transporter 1 (Homo sapiens, UniProt Q9GZV3).
T1 sequence (Q9GZV3 whole entry): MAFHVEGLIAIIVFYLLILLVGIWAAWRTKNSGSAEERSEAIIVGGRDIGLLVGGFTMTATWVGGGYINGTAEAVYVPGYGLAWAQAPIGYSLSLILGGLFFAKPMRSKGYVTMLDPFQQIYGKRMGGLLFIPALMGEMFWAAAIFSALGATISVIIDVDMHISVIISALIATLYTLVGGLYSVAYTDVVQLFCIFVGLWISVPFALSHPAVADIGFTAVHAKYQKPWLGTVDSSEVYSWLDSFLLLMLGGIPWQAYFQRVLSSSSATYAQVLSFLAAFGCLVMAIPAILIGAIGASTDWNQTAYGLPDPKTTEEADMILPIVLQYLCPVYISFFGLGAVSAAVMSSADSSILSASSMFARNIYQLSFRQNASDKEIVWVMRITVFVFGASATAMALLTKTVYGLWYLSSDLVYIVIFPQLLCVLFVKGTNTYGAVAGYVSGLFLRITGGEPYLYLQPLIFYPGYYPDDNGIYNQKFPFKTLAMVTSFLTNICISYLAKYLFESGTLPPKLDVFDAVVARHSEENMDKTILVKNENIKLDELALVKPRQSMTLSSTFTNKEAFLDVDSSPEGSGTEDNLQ
Description: CHT activators, dose response, cell-based, 10-point CRC, membrane potential dye (AID 602376). Format: functional.

The target of experiment [4] is DNA dC->dU-editing enzyme APOBEC-3A (Homo sapiens, UniProt P31941). Description: Dose Response confirmation of small molecule APOBEC3A DNA Deaminase Inhibitors via a fluorescence-based single-stranded DNA deaminase assay. [Related pubchem assays (depositor defined):AID493011, AID493024]. Format: functional.
DNA dC->dU-editing enzyme APOBEC-3A, sequence (P31941 whole entry): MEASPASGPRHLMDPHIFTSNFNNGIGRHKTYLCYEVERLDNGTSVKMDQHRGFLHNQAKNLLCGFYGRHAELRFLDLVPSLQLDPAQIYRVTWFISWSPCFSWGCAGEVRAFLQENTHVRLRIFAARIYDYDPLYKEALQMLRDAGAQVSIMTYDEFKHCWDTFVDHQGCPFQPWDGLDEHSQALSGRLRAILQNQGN
Experiment [5] is described as follows: HeLa cell cytotoxicity, dose response, cytotoxicity control for MgcRacGAP inhibitor project (AID 624300). It counts as functional.
The target in experiment [6] is T2, Rac GTPase-activating protein 1 (Homo sapiens, UniProt Q9H0H5).
T2 sequence (Q9H0H5 whole entry): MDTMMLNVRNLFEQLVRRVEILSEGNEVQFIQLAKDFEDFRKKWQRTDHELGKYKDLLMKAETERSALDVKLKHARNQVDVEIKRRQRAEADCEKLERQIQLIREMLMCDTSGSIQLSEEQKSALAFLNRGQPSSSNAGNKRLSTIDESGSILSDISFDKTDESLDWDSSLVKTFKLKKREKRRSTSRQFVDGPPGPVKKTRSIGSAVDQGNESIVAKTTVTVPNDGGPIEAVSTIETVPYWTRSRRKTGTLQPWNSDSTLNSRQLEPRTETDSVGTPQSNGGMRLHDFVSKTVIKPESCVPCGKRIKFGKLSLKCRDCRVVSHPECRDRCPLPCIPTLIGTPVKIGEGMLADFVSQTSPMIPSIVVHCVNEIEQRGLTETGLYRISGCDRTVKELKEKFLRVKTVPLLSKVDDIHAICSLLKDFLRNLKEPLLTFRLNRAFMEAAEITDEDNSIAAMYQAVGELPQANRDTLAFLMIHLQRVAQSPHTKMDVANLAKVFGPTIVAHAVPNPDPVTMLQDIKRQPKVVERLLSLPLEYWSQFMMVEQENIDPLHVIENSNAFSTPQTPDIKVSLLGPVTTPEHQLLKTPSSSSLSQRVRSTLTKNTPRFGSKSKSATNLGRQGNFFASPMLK
Description: MgcRacGAP GTPase-activating activity inhibitors, confirmation, biochemical, ADP Hunter fluorescence, primary and confirmatory (AID 624330). It counts as functional.

Experiment [7] has as its target T3, Sentrin-specific protease 1 (Homo sapiens, UniProt Q9P0U3). In words: potency of human SENP1 inhibitors, dose response, biochemical, kinetic FRET (AID 651697). It counts as functional. The conditions noted are these: read-out: IC50_Mean.
The target of experiment [8] is T3, Sentrin-specific protease 1. Description: Dose response confirmation of small molecule inhibitors of the catalytic domain of the SUMO protease, SENP1 in a FRET assay. The conditions noted are these: read-out: IC50_Mean. It counts as functional.
Experiment [9] concerns A-375. Description: A375 melanoma cell viability reduction, dose response, counter-screen for MITF modulator project, cherry-pick samples, set 2 (AID 540335). Format: functional, cell-based. The conditions noted are these: Homo sapiens. A general note: A counterscreen serves to expose hits that act by an unwanted route or on another target.
The target of another experiment is Paired box protein Pax-8 (Homo sapiens, UniProt Q06710). In words: inhibitors of PAX8-driven TPO luciferase reporter, dose response, RMG-I cells, cherry-pick (AID 687027).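 Note: luciferase reporter driven by Pax8 target thyroperoxidase promoter measured by SteadyGlo luminescence.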 Format: functional, cell-based. (In a reporter assay the amount or activity of a reporter protein is the signal.)
Paired box protein Pax-8, sequence (Q06710 whole entry): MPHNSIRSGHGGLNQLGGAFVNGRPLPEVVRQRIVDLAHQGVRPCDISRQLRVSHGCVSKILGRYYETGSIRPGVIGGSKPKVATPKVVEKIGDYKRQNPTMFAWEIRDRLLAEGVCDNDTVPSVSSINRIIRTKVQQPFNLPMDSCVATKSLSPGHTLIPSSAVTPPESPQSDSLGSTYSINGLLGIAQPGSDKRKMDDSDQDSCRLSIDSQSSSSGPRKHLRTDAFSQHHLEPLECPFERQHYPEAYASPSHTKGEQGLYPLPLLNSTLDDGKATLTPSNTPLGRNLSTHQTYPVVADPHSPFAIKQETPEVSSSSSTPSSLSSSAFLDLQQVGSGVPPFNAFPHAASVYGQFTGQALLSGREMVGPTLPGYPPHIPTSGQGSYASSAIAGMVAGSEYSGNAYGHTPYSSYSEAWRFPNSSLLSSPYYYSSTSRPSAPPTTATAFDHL
The target in the next experiment is Beta-galactosidase (Escherichia coli, UniProt Q8VNN2). In words: PubChem AID 485352. It counts as functional.
Experiment [10] can be described thus: control 3'UTR Renilla luciferase suppression, dose response, counter-screen for Shn3 inhibitor project, cell-based, Clone20-Shn3RL, cherry-picked (AID 624133). Format: functional.
Experiment [11] deals with Type-1 angiotensin II receptor (Homo sapiens, UniProt P30556). Description: AT1 receptor antagonists, dose response, selectivity assay for APJ receptor antagonist project, cell-based, uHTS hits (AID 463214).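 Note: antagonist potency against angiotensin II stimulated AT1 response.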 Format: functional.
Type-1 angiotensin II receptor, sequence (P30556 whole entry, the tested form may be a part): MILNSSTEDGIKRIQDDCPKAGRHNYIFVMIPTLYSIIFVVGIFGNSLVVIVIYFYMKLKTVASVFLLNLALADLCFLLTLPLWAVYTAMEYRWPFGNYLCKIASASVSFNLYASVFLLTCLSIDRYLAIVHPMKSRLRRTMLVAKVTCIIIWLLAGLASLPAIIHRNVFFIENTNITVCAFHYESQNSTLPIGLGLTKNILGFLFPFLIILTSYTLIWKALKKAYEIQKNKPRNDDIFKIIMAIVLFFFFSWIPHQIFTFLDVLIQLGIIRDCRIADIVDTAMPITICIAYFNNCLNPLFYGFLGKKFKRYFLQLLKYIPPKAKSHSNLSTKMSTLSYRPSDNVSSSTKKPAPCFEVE
The target in experiment [12] is T4, Fatty acid synthase (Homo sapiens, UniProt P49327). In words: FAS thioesterase domain inhibitors, dose response, biochemical, endpoint fluorescence intensity, uHTS hits (AID 624327).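 Note: fluorescence from hydrolysis of an O-methyl fluorescein acyl ester substrate by the enzyme.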 It counts as functional.
T4 sequence (P49327 whole entry, the tested form may be a part): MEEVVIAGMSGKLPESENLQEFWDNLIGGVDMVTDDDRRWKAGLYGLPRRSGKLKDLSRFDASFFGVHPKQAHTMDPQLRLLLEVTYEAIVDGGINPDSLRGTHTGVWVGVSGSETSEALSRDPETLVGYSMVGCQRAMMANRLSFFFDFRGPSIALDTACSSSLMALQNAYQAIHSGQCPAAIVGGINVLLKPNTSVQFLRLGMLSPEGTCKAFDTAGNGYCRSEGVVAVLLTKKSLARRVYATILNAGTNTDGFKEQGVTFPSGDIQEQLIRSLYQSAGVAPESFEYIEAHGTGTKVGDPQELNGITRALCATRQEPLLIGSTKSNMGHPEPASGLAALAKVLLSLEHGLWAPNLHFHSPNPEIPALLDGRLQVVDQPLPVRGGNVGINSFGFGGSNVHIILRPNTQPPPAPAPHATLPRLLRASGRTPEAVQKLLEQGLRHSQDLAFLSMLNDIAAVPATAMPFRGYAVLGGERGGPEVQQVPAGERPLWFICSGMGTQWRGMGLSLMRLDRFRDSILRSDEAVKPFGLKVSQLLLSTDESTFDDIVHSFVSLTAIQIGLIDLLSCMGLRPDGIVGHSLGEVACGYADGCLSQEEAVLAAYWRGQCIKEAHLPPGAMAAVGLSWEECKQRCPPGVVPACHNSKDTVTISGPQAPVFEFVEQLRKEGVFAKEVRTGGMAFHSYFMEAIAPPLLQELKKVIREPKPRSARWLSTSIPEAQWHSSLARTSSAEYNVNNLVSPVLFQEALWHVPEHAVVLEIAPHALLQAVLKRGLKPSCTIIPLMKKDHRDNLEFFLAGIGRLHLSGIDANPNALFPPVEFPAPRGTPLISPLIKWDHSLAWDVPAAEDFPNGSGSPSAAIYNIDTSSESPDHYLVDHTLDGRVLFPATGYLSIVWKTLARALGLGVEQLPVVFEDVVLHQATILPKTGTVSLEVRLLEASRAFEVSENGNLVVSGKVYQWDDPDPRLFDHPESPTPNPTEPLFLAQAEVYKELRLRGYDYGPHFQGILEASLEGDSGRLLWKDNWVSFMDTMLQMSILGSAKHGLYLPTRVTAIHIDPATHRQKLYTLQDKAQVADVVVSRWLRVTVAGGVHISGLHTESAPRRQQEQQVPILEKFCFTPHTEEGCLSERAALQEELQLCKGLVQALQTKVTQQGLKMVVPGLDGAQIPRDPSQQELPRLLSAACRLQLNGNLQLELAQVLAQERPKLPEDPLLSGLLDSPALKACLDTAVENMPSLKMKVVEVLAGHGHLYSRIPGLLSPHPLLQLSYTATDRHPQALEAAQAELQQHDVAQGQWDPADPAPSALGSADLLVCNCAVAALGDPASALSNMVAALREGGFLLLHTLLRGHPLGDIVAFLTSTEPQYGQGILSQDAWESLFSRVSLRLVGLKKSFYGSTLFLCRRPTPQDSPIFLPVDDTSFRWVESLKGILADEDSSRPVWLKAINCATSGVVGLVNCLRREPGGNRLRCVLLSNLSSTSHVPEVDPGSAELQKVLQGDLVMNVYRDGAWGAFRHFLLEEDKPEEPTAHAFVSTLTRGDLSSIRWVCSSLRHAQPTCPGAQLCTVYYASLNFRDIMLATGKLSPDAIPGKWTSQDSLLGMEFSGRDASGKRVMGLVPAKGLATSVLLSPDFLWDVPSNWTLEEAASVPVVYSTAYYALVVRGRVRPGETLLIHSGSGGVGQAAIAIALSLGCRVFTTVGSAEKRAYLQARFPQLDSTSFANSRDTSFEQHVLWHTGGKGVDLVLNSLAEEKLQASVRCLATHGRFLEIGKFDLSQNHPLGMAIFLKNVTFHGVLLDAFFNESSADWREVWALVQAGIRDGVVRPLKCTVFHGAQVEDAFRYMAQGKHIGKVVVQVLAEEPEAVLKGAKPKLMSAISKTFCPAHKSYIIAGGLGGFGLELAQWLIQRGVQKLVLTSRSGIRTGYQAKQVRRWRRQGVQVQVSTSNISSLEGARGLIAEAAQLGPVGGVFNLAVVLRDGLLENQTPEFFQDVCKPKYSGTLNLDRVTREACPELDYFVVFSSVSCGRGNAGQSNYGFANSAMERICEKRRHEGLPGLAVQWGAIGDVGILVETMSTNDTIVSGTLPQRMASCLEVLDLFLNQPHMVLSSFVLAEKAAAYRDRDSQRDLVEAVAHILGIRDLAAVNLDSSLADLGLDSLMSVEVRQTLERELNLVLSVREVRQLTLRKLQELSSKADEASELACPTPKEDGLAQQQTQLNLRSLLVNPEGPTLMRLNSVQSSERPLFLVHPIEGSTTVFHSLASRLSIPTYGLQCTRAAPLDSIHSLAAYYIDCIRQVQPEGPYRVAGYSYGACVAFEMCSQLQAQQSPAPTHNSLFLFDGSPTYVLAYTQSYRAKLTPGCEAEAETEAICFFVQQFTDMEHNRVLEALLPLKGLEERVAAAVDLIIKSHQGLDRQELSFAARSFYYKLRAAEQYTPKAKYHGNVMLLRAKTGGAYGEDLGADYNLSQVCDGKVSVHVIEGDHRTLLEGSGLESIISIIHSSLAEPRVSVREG
The nature of experiment [13]: Luminescence Cell-Based Dose Retest to Confirm Inhibitors of Cancer Stem Cells. [Related pubchem assays (depositor defined):AID2717, AID2721]. It counts as functional. The following applies: Homo sapiens.
Experiment [14] relates to A-375. Description: MITF: Counter assay: A375 proliferation Measured in Cell-Based System Using Plate Reader - 2084-03_Inhibitor_Dose_DryPowder_Activity. [Related pubchem assays (depositor defined):AID488944]. It counts as functional. The following applies: Homo sapiens.
In another experiment the target is Beta Lactamase (Pseudomonas aeruginosa, UniProt Q932Y6). Description: beta-lactamase reporter inhibitor potency, dose response, artefact control for TLR9-MyD88 binding inhibitor project, BLA reporter cells, FRET fluorescence (AID 588341).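 Note: cell based assay in CHO-K1 cells stably expressing beta-lactamase.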 Format: cell-based.
Beta Lactamase, sequence (Q932Y6 whole entry): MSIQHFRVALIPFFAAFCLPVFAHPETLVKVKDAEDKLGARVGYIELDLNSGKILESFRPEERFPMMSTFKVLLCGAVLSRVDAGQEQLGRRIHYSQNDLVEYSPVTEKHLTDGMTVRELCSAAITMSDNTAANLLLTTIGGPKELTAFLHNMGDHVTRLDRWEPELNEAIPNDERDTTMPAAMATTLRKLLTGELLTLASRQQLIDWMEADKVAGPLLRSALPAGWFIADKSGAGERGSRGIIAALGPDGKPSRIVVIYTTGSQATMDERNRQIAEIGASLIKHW
Experiment [15] deals with Heat shock protein HSP 90-alpha (Homo sapiens, UniProt P07900). Format: functional, organism-based.
For experiment [16], the target named is T5, Microphthalmia-associated transcription factor (Homo sapiens, UniProt O75030).
T5 sequence (O75030 whole entry): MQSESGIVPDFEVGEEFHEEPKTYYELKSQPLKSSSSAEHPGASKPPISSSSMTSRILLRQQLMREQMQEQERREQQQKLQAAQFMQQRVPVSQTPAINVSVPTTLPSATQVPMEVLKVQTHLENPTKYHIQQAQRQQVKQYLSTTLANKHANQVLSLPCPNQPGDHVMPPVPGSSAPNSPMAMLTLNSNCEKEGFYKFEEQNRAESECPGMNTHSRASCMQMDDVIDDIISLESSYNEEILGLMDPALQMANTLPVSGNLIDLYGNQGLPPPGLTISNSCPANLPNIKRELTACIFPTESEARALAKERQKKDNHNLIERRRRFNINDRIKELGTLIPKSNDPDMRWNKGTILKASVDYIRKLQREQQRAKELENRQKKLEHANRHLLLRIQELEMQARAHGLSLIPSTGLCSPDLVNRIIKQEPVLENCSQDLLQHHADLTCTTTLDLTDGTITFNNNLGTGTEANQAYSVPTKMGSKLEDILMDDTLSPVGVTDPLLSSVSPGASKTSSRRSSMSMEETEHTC
In words: TRPM1 promoter luciferase signal decrease, dose response, MITF inhibitor project, cell-based, SK-MEL-5, cherry-picked, set 3 (AID 493073).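 Note: SK-MEL-5 melanoma cells with luciferase driven by the MITF target TRPM1 promoter.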 Format: functional.

The next experiment has as its system CHO. In words: cytotoxicity in TLR9-MyD88 CHO cells, dose response, cytotoxicity control for TLR9-MyD88 binding inhibitor project, cell-based, luminescence (AID 588339).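 Note: CHO cells stably coexpressing TLR9 and MyD88 fusions from primary screen; compound exposure lasted 48 hours before viability readout.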 It counts as functional, hamster. The following applies: Cricetulus griseus.
For experiment [17], the target named is ATP-binding cassette sub-family B member 6 (Homo sapiens, UniProt Q9NP58). Description: ABCB6 transporter inhibitors, dose response, K562-ABCB6 cells, flow cytometry, cherry pick 1 (AID 623955). Format: functional. The conditions noted are these: read-out: EC50_MICROM. Background: A flow cytometer gives signals particle by particle.
The target of experiment [18] is T4, Fatty acid synthase. Description: FAS thioesterase domain inhibitors, dose response, biochemical, kinetic fluorescence intensity (AID 624326).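 Note: rate of fluorescence rise from hydrolysis of a fluorogenic O-methyl fluorescein ester substrate.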 It counts as functional.
Experiment [19] can be described thus: HepG2 cell cytotoxicity, dose response, cytotoxicity control for Shn3 inhibitor project, CellTiter-Glo, cherry-picked (AID 624134). Format: functional, cell-based.
Experiment [20] can be described thus: Shn3 3'UTR reporter inhibitors, dose response, cell-based, Clone20 osteoblasts, firefly luciferase, cherry-picked (AID 624132).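 Note: firefly luciferase luminescence from reporter carrying the Shn3 3'UTR in osteoblasts.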 It counts as functional.
The nature of experiment [21]: AlphaScreen signal interference compounds, dose response, artefact control for ARNT-TACC3 interaction inhibitor project, biochemical, luminescence, cherry-pick (AID 651705).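 Note: AlphaScreen bead proximity signal that flags compounds interfering with the detection technology; potency reflects signal decrease which marks the compound as an assay artifact.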 It counts as functional.
A short description of experiment [22]: HEK293 cell viability, dose response, counter-screen for EBV LMP1 inhibitor project, dry powder, set 2 (AID 624374). Format: functional.
The nature of experiment [23]: LMP1-driven NF-kB reporter inhibition, dose response, cell-based, luciferase reporter, luminescence, dry powder, set 2 (AID 624376). It counts as functional.

Active and inactive are the calls of the source.

T3 sequence (Q9P0U3 whole entry, the tested form may be a part): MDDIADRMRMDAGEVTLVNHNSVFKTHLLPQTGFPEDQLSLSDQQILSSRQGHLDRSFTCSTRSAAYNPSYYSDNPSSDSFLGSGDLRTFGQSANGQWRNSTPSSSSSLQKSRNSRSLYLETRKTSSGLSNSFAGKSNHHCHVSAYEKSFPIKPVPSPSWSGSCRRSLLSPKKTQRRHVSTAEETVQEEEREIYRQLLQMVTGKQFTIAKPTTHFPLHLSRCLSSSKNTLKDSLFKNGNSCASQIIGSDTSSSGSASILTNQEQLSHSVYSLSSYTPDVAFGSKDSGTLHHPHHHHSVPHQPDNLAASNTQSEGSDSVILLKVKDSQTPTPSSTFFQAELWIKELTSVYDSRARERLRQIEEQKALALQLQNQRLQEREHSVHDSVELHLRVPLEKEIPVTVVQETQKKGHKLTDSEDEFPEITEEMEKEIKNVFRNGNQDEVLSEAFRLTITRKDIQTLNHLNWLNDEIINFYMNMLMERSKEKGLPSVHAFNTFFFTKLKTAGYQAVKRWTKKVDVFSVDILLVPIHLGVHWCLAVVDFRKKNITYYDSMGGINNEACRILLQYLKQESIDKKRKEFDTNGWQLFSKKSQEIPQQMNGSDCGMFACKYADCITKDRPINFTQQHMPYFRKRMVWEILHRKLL

For `Cc1ccc(C)c(C(=O)COC(=O)c2ccc(C)c(S(=O)(=O)N3CCOCC3)c2)c1`, the EC50 in experiment [1] is 0.704 µM (active).
With `CCN1C(NCCc2cccnc2)=N[C@@H](c2ccccc2)[C@H](C(=O)OC)[C@H]1C`, the IC50 in [2] is 6.37 µM (active); in experiment [4], 4.22 µM (active). Besides, the EC50 in experiment [3] is 14.6 µM (active).
With `CN(c1ccc(O)cc1)c1nc(-c2ccccc2)cs1`, the CC50 in [5] was 100 µM (active). In experiment [6], the IC50 is 57.7 µM (active).
Regarding `COc1ccc2sc(/C=C/c3ccccc3O)[n+](C)c2c1`, the figures for the IC50 in experiment [7] and in experiment [8] were 14.3 µM (active) and 10.2 µM (active), respectively.
For the compound `O=C(Nc1ccc(F)cc1)c1nc(S(=O)(=O)Cc2ccccc2)ncc1Cl`, the AC50 in the experiment on A-375 [9] is > 11 µM (active); at Paired box protein Pax-8, 10.4 µM (active); in [10], 6.61 µM (active); in experiment [13], 1.63 µM (active); with A-375 [14] it was > 11 µM (active); in experiment [15], 3.46 µM (active). Moreover, the figures for the AC50 in experiment [16], in experiment [19] and in [20] were 9.45 µM (active), 22.6 µM (active) and 3.38 µM (active), respectively. Besides, the EC50 on Beta-galactosidase is > 40 µM (inactive); in [17] it was 62.8 µM (active). Also, the IC50 was 11.8 µM (active) in experiment [11]; 13.4 µM (active) at Fatty acid synthase [12]; 5.43 µM (active) on Beta Lactamase; 2.79 µM (active) in the experiment on CHO; 8.67 µM (active) on Fatty acid synthase [18].
As to `Cn1c(-c2ccc3c(c2)OCO3)cnc1N`, in experiment [21], the AC50 was 83.7 µM (active).
For the compound `CO[C@H](CN(C)S(=O)(=O)c1cccc(Cl)c1)[C@@H](C)CN([C@H](C)CO)S(=O)(=O)c1ccc(Cl)cc1`, the AbsAC35 was 104.79 µM in experiment [22] and 36.95 µM in experiment [23].

The term CC50 denotes the concentration giving 50% cytotoxicity. As usually defined, the AC50 is the concentration giving half of the maximal activity seen.
